Experimental data: the NIST ThermoML archive (doi:10.1021/je900888e)

Assay: mn = molality of the nth substance listed, in mol/kg
Details: 101 kPa, Liquid; for speed of sound: Pulse-echo method

CCCC[P+](CCCC)(CCCC)CCCC.[Br-] [tetrabutylphosphonium bromide] + CCCO
Details | mass density, 288.15 K [kg/m3] | mass density, 293.15 K [kg/m3] | mass density, 298.15 K [kg/m3] | mass density, 303.15 K [kg/m3] | mass density, 308.15 K [kg/m3] | mass density, 313.15 K [kg/m3] | mass density, 323.15 K [kg/m3] | speed of sound, 298.15 K [m/s]
m1 = 0.008229 | 808.063 | 804.08 | 800.075 | 796.04 | 791.98 | 787.867 | 779.506 | –
m1 = 0.01006 | 808.2 | 804.217 | 800.212 | 796.179 | 792.12 | 788.009 | 779.649 | 1205.6
m1 = 0.01526 | 808.58 | 804.599 | 800.599 | 796.569 | 792.51 | 788.405 | 780.051 | –
m1 = 0.02043 | 808.96 | 804.977 | 800.981 | 796.957 | 792.896 | 788.788 | 780.443 | –
m1 = 0.02524 | 809.318 | 805.33 | 801.34 | 797.315 | 793.259 | 789.158 | 780.808 | 1206.6
m1 = 0.03024 | 809.68 | 805.698 | 801.705 | 797.688 | 793.626 | 789.53 | 781.191 | –
m1 = 0.03749 | 810.212 | 806.23 | 802.24 | 798.225 | 794.174 | 790.075 | 781.741 | –
m1 = 0.05294 | 811.322 | 807.354 | 803.369 | 799.354 | 795.307 | 791.221 | 782.905 | 1208.6
m1 = 0.06813 | 812.403 | 808.443 | 804.463 | 800.458 | 796.411 | 792.34 | 784.043 | 1209.5
m1 = 0.0867 | 813.75 | 809.793 | 805.818 | 801.819 | 797.792 | 793.72 | 785.44 | 1210.8
m1 = 0.1076 | 815.247 | 811.298 | 807.331 | 803.338 | 799.313 | 795.248 | 786.995 | 1212.2
m1 = 0.1375 | 817.423 | 813.485 | 809.531 | 805.541 | 801.524 | 797.479 | 789.244 | 1213.9
m1 = 0.1743 | 820.087 | 816.159 | 812.214 | 808.243 | 804.242 | 800.208 | 792.006 | 1216.2
m1 = 0.2115 | 822.781 | 818.864 | 814.928 | 810.97 | 806.982 | 802.96 | 794.787 | 1218.4
m1 = 0.2447 | 825.209 | 821.3 | 817.377 | 813.431 | 809.45 | 805.445 | 797.302 | 1220.7
m1 = 0.2873 | 828.335 | 824.437 | 820.523 | 816.588 | 812.63 | 808.638 | 800.526 | 1223.5
m1 = 0.3248 | 831.089 | 827.205 | 823.305 | 819.382 | 815.432 | 811.451 | 803.369 | 1225.7

CCCC[P+](CCCC)(CCCC)CCCC.[Br-] [tetrabutylphosphonium bromide] + CCO
Details | mass density, 288.15 K [kg/m3] | mass density, 293.15 K [kg/m3] | mass density, 298.15 K [kg/m3] | mass density, 303.15 K [kg/m3] | mass density, 308.15 K [kg/m3] | mass density, 313.15 K [kg/m3] | mass density, 323.15 K [kg/m3] | speed of sound, 298.15 K [m/s]
m1 = 0.01059 | 794.469 | 790.202 | 785.915 | 781.605 | 777.266 | 772.883 | 763.983 | 1143.4
m1 = 0.01529 | 794.835 | 790.569 | 786.285 | 781.975 | 777.642 | 773.262 | 764.367 | –
m1 = 0.02012 | 795.211 | 790.945 | 786.664 | 782.36 | 778.029 | 773.654 | 764.765 | 1144.2
m1 = 0.02498 | 795.579 | 791.314 | 787.039 | 782.735 | 778.405 | 774.033 | 765.15 | –
m1 = 0.03006 | 795.97 | 791.71 | 787.435 | 783.133 | 778.811 | 774.44 | 765.563 | 1144.9
m1 = 0.03503 | 796.342 | 792.084 | 787.812 | 783.514 | 779.185 | 774.821 | 765.954 | –
m1 = 0.04151 | 796.84 | 792.586 | 788.317 | 784.017 | 779.692 | 775.339 | 766.473 | –
m1 = 0.04161 | – | – | – | – | – | – | – | 1145.8
m1 = 0.05762 | 798.064 | 793.819 | 789.557 | 785.266 | 780.958 | 776.605 | 767.762 | 1147
m1 = 0.0739 | 799.301 | 795.066 | 790.805 | 786.532 | 782.224 | 777.879 | 769.054 | 1148.3
m1 = 0.09578 | 800.947 | 796.718 | 792.466 | 788.201 | 783.906 | 779.575 | 770.773 | 1150
m1 = 0.1153 | 802.415 | 798.195 | 793.96 | 789.696 | 785.405 | 781.083 | 772.302 | 1151.6
m1 = 0.1491 | 805.003 | 800.793 | 796.569 | 792.326 | 788.054 | 783.746 | 775 | 1154
m1 = 0.1902 | 808.127 | 803.94 | 799.735 | 795.51 | 791.254 | 786.963 | 778.257 | 1157.1
m1 = 0.2304 | 811.194 | 807.016 | 802.825 | 798.61 | 794.369 | 790.1 | 781.434 | 1160.1
m1 = 0.2693 | 814.212 | 810.05 | 805.871 | 801.675 | 797.452 | 793.195 | 784.564 | 1163.2
m1 = 0.3148 | 817.67 | 813.522 | 809.364 | 805.185 | 800.979 | 796.743 | 788.154 | 1166.6
m1 = 0.3532 | 820.707 | 816.572 | 812.423 | 808.255 | 804.069 | 799.851 | 791.3 | 1169.7

CC#N [acetonitrile] + CCCC[P+](CCCC)(CCCC)CCCC.[Br-]
m2 = 0
Details | mass density [kg/m3]
288.15 K | 787.275
293.15 K | 781.893
298.15 K | 776.493
303.15 K | 771.067
308.15 K | 765.61
313.15 K | 760.119
323.15 K | 749.031

CC(C)=O [acetone] + CCCC[P+](CCCC)(CCCC)CCCC.[Br-]
m2 = 0
Details | mass density [kg/m3]
288.15 K | 795.633
293.15 K | 789.952
298.15 K | 784.234
303.15 K | 778.47
308.15 K | 772.661
313.15 K | 766.799

CCCO [propan-1-ol] + CCCC[P+](CCCC)(CCCC)CCCC.[Br-]
m2 = 0
Details | mass density [kg/m3]
288.15 K | 807.448
293.15 K | 803.46
298.15 K | 799.452
303.15 K | 795.414
308.15 K | 791.344
313.15 K | 787.227
323.15 K | 778.86
